{
  "source": "paper PMC9135731",
  "about": "(Communications Biology, 2022)",
  "molecules": {"B1": {"name": "AviM PT domain (product template domain of the orsellinic acid synthase AviM) (domain or fragment, Streptomyces viridochromogenes Tü57)", "chain": "DSHTLLGTPGGVAGSDLRLWHSTLDDDSRPYPGSHALNGVEIVPAAVLAVTFLAAGAEGEERRALQDMTMTHPVLTAGQRQIQVVREGEVVRLASRTVADAADPNPAWLVHAEARTAAPDLAGLAARSLLDPGEHRLEPADPGLVSRRLAEVGVPSTGFDWSVERLSAGLGVLHAQVLSPDASSWAPLLDAVMSIAPAAFVGLPQLRMVVHVDEITVDGTPPEAATVEVALDPRVADTVHALVTDGEGRPVASLRGLRYP", "notes": "AviM, orsellinic acid synthase (iterative type I PKS, KS-AT-PT-ACP) of Streptomyces viridochromogenes Tü57; excised PT domain cloned as an 816 bp NdeI/EcoRI fragment in pET28a; An 816 bp fragment codes for about 272 residues, more than the 260 of residues 915-1174; also called bacterial PT domain; source: E. coli BL21(DE3), purified (Nickel-NTA, gel filtration); not shown: His6, N-terminal, kept"}},
  "key": {"AviM": {"biological_target": "T1, AviM (Streptomyces viridochromogenes, UniProt O05170)", "T1 construct": "expressed in E. coli BAP1 (sfp), phosphopantetheinylated with CoA and Sfp before assay", "T1 sequence (O05170 entry or part of it)": "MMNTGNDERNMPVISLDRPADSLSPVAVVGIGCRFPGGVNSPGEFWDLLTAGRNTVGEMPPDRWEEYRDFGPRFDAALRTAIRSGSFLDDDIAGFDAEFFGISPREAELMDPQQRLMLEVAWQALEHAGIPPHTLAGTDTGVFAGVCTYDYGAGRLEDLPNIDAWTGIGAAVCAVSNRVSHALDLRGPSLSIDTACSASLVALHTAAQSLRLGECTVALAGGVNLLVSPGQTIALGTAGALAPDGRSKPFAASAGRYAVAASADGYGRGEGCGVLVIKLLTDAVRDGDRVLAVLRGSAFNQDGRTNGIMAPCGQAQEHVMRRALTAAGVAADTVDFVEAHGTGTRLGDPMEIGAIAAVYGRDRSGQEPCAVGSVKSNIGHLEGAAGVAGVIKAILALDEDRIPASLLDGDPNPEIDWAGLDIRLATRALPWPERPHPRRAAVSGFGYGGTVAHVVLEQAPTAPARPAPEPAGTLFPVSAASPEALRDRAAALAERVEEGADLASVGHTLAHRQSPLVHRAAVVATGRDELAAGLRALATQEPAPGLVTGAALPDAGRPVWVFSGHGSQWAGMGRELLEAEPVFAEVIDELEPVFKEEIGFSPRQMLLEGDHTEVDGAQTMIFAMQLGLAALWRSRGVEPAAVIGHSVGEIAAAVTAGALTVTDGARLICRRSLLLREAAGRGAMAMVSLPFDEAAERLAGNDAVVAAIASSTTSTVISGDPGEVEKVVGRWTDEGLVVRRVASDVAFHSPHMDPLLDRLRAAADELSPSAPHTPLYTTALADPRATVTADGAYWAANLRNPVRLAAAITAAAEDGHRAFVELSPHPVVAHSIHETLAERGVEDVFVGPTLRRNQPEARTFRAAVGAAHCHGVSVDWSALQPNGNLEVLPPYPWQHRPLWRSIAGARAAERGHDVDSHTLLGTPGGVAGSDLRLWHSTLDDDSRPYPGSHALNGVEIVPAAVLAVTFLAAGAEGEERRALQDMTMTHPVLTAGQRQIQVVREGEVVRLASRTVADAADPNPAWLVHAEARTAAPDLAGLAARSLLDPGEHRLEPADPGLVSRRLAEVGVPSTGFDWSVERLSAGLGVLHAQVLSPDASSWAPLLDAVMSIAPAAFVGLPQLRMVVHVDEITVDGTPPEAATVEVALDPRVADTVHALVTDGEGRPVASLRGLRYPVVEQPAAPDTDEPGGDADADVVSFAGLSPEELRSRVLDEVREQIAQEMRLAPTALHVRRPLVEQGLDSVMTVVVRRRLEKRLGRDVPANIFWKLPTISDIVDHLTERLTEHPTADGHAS", "assay": "LC-MS detection of orsellinic acid product", "type": "biochemical", "settings": "50 uM enzyme, 10 mM MgCl2, pH 7.4, 25 °C, with CoA and Sfp"}, "[1]": {"biological_target": "the molecule itself", "assay": "SEC; Superdex 200/Superose 6 gel filtration column, 150 mM NaCl, 10 mM Tris pH 7.5, 4 °C"}},
  "data": [
    {"molecule": "CC(=O)SCCNC(=O)CCNC(=O)[C@H](O)C(C)(C)COP(=O)(O)OP(=O)(O)OC[C@H]1O[C@@H](n2cnc3c(N)ncnc32)[C@H](O)[C@@H]1OP(=O)(O)O", "note": "[acetyl-CoA]", "values": [
      {"measurement": "LC-MS detection of orsellinic acid product", "setting": "AviM; starter unit, malonyl-CoA co-substrate", "value": "Trace amount of OSA was indeed produced when AviM was incubated with acetyl-CoA and malonyl-CoA"}
    ]},
    {"molecule": "CC(C)(COP(=O)(O)OP(=O)(O)OC[C@H]1O[C@@H](n2cnc3c(N)ncnc32)[C@H](O)[C@@H]1OP(=O)(O)O)[C@@H](O)C(=O)NCCC(=O)NCCSC(=O)CC(=O)O", "note": "[malonyl-CoA]", "values": [
      {"measurement": "LC-MS detection of orsellinic acid product", "setting": "AviM; extender unit, acetyl-CoA co-substrate", "value": "Trace amount of OSA was indeed produced when AviM was incubated with acetyl-CoA and malonyl-CoA"}
    ]},
    {"molecule": "B1", "values": [
      {"measurement": "stoichiometry N", "setting": "[1]", "value": 2}
    ]}
  ]
}
